Assays:
IL-8 [1] = experiment: ELISA of IL-8 release by cytokine-stimulated keratinocytes; format: cell-based, humains; details: for effet sur la libération d'IL-8 (in words): concentrations as in Tableau 5 (JAK 10 µM; TA, TB 500 ng/ml; Célastrol 100 ng/ml; extrait 1 200 ng/ml; extrait 2 150 ng/ml)
CXCL11 = experiment: RT-qPCR gene expression in cytokine-stimulated keratinocytes; format: cell-based, humains; details: 24 h
CXCL16 = experiment: as above; format: cell-based, humains; details: 24 h
S100A7 = experiment: as above; format: cell-based, humains; details: 24 h
IL-8 [2] = experiment: as above; format: cell-based, humains; details: 24 h
MMP-9 [3] = experiment: as above; format: cell-based, humains; details: 24 h
CCL5 = experiment: as above; format: cell-based, humains; details: 24 h
MMP-9 [4] = experiment: ELISA of MMP-9 release by cytokine-stimulated keratinocytes; format: cell-based, humains; details: for Libération de MMP-9 (pg/ml) ± sem: stimulated keratinocytes, 48 h, supernatant; for effet sur la libération de MMP-9 (in words): concentrations as in Tableau 5 (JAK 10 µM; TA, TB 500 ng/ml; Célastrol 100 ng/ml; extrait 1 200 ng/ml; extrait 2 150 ng/ml)
IL-23A = experiment: RT-qPCR gene expression in cytokine-stimulated keratinocytes; format: cell-based, humains; details: 24 h
[5] = ORAC (Oxygen Radical Antioxydant Capacity) antioxidant test in tubo; details: for Indice ORAC / 100g triterpènes (x 1000): Trolox standard, AAPH, fluorescéine
Text: Le stress oxydatif fait partie des causes possibles de l'apparition du vitiligo. Cette expérience a pour objectif de mesurer l'activité antioxydante de chaque triterpène pentacyclique et des deux extraits, en comparaison avec un témoin positif bien connu, la vitamine C. La méthode in tubo utilisée est celle d'évaluation ORAC (Oxygen Radical Antioxydant Capacity) adaptée de celle décrite par Davalos et al. (J Agric Food Chem 52(1):48-54, 2004). L'indice ORAC permet d'évaluer la capacité anti-oxydante de chaque composé testé dans l'exemple 2. Ce test permet d'évaluer et de classer les différents composés testés suivant leur pouvoir anti-oxydant vis-à-vis des radicaux libres péroxyl. Le AAPH (2,2'-azobis-2-méthyl-propanimidamide, dihydrochloride) est à l'origine de radicaux libres péroxyl. Ce test est utilisé pour mimer la cinétique de dégradation de la fluorescéine par les radicaux libres. Ceci se traduit par une diminution de fluorescence en fonction du temps et de la concentration en actif anti-oxydant présent dans l'extrait testé. L'acide 3,4-dihydro-6-hydroxy-2,5,7,8-tétraméthyl-2H-1-benzopyran-2-carboxylique ou Trolox est utilisé comme standard, il s'agit d'un analogue hydrophile de la vitamine E (anti-oxydant connu). L'ajout de Trolox (gamme de référence) ou d'extrait ou triterpène pentacyclique, protège la fluorescéine de la dégradation. Ceci permet d'évaluer une activité antioxydante mesurée par rapport à une gamme de Trolox.
Toutes les solutions sont réalisées dans du tampon phosphate 75 mM, pH à 7,6. La fluorescéine est à 1,17 µM (solution mère […]). AAPH à 125 mM est préparé extemporanément, Trolox à 1 mM. Dans une plaque de 96 puits noir, il est déposé 20 µl d'antioxydant (gamme Trolox ou composé à tester), 160 µl de fluorescéine à 1,17 µM. la plaque est recouverte d'un film, puis est incubée pendant 15 minutes à 37°C. la solution de AAPH est ajoutée manuellement et le plus rapidement possible à raison de 20 µl par puits. La plaque est alors incubée immédiatement à 37°C dans un spectrofluorimètre (SpectraMax). Une lecture est enregistrée toutes les minutes pendant 90 minutes. La longueur d'onde d'excitation est de 485 nm et la longueur d'onde d'émission est de 520 nm. Chaque essai est réalisé en triplicata.
Les aires sous la courbe (AUC) pour chacun des essais sont calculées. Les AUC nets sont déterminées de la façon suivante : AUC net = AUC point de gamme ou échantillon−AUC blanc. [formula]
La droite d'étalonnage est établie, la concentration en Trolox (µM) en fonction de l'AUC net. L'équation de la droite est utilisée pour déterminer un équivalent en Trolox (µM) pour chacun des échantillons dosés.
Eq Trolox en µM = a x (AUC net)2 + b x (AUC net), a et b sont déterminés par l'équation de la droite.
Pour être dosés, les échantillons sont dilués, de sorte que les valeurs mesurées soient comprises dans la gamme étalon utilisée pour le dosage. L'acide ascorbique (vitamine C) est utilisé comme référence.
L'indice ORAC correspond à des […] de Trolox / 100g de matières.
Les résultats ci-dessous ont été calculés pour 100g d'extrait en Triterpènes, Tingénine A, Tingénine B et célastrol, soit le calcul : [formula]

CXCL10 = experiment: RT-qPCR gene expression in cytokine-stimulated keratinocytes; format: cell-based, humains; details: 24 h
CCL20 = experiment: as above; format: cell-based, humains; details: 24 h
DEFB4A = experiment: as above; format: cell-based, humains; details: 24 h
[6] = 15 ng/ml, stimulated keratinocytes
[7] = 45 ng/ml, stimulated keratinocytes
[8] = 135 ng/ml, stimulated keratinocytes
[9] = 10µM, stimulated keratinocytes (IL-17, Oncostatin M, TNFα 3ng/ml)
[10] = 405 ng/ml, stimulated keratinocytes

Molecule | effet sur la libération d'IL-8 (in words) (IL-8 [1]) | % Stimulation / Gènes témoins, CXCL11 (CXCL11; [7]) [%] | % Stimulation / Gènes témoins, CXCL11 (CXCL11; [8]) [%] | % Stimulation / Gènes témoins, CXCL16 (CXCL16; [7]) [%] | % Stimulation / Gènes témoins, CXCL16 (CXCL16; [8]) [%] | % Stimulation / Gènes témoins, S100A7 (S100A7; [7]) [%] | % Stimulation / Gènes témoins, S100A7 (S100A7; [8]) [%] | % Stimulation / Gènes témoins, IL-8 (IL-8 [2]; [7]) [%] | % Stimulation / Gènes témoins, IL-8 (IL-8 [2]; [8]) [%] | % Stimulation / Gènes témoins, MMP-9 (MMP-9 [3]; [7]) [%] | % Stimulation / Gènes témoins, MMP-9 (MMP-9 [3]; [8]) [%] | % Stimulation / Gènes témoins, CCL5 (CCL5; [7]) [%] | % Stimulation / Gènes témoins, CCL5 (CCL5; [8]) [%] | effet sur la libération de MMP-9 (in words) (MMP-9 [4]) | % Stimulation / Gènes témoins, IL-23A (IL-23A; [7]) [%] | % Stimulation / Gènes témoins, IL-23A (IL-23A; [8]) [%] | % Stimulation / Gènes témoins, CXCL10 (CXCL10; [7]) [%] | % Stimulation / Gènes témoins, CXCL10 (CXCL10; [8]) [%] | % Stimulation / Gènes témoins, CCL20 (CCL20; [7]) [%] | % Stimulation / Gènes témoins, CCL20 (CCL20; [8]) [%] | also measured
CC1=C(O)C(=O)C=C2C1=CC=C1[C@@]2(C)CC[C@@]2(C)[C@@H]3C[C@](C)(C(=O)O)CC[C@]3(C)CC[C@]12C [Célastrol] | effet inhibiteur | 5 | 1 | 51 | 23 | 53 | 16 | 36 | 5 | 88 | 9 | 12 | 3 | effet inhibiteur | 41 | 15 | 20 | 10 | 35 | 11 | Libération d'IL-8 (pg/ml) ± sem (IL-8 [1]; 100 ng/ml, stimulated keratinocytes, 48 h, supernatant): 83 ± 7 pg/mL; % Stimulation / Gènes témoins, CXCL11 (CXCL11; [6]): 59%; % Stimulation / Gènes témoins, CXCL16 (CXCL16; [6]): 95%; % Stimulation / Gènes témoins, S100A7 (S100A7; [6]): 78%; % Stimulation / Gènes témoins, IL-8 (IL-8 [2]; [6]): 100%; % Stimulation / Gènes témoins, MMP-9 (MMP-9 [3]; [6]): 139%; % Stimulation / Gènes témoins, CCL5 (CCL5; [6]): 79%; Libération de MMP-9 (pg/ml) ± sem (MMP-9 [4]; 100 ng/ml): 395 ± 15 pg/mL; % Stimulation / Gènes témoins, IL-23A (IL-23A; [6]): 63%; Indice ORAC / 100g triterpènes (x 1000) ([5]; 30 µg/ml): 126 466 / 100g triterpènes (x 1000); % Stimulation / Gènes témoins, CXCL10 (CXCL10; [6]): 72%; % Stimulation / Gènes témoins, CCL20 (CCL20; [6]): 86%; % Stimulation / Gènes témoins, DEFB4A (DEFB4A; [6]): 90%; % Stimulation / Gènes témoins, DEFB4A (DEFB4A; [7]): 32%; % Stimulation / Gènes témoins, DEFB4A (DEFB4A; [8]): 3%
CC(C)(C)c1nc2c3cc[nH]c(=O)c3c3cc(F)ccc3c2[nH]1 [Inhibiteur JAK, reference compound] | inhibe fortement et statistiquement | – | – | – | – | – | – | – | – | – | – | – | – | inhibe fortement et statistiquement | – | – | – | – | – | – | % Stimulation / Gènes témoins, CXCL11 (CXCL11; [9]): 14%; % Stimulation / Gènes témoins, CXCL16 (CXCL16; [9]): 76%; % Stimulation / Gènes témoins, S100A7 (S100A7; [9]): 25%; % Stimulation / Gènes témoins, IL-8 (IL-8 [2]; [9]): 18%; % Stimulation / Gènes témoins, MMP-9 (MMP-9 [3]; [9]): 40%; % Stimulation / Gènes témoins, CCL5 (CCL5; [9]): 16%; Libération de MMP-9 (pg/ml) ± sem (MMP-9 [4]; 10 µM): 389 ± 18 pg/mL; % Stimulation / Gènes témoins, IL-23A (IL-23A; [9]): 67%; % Stimulation / Gènes témoins, CXCL10 (CXCL10; [9]): 38%; % Stimulation / Gènes témoins, CCL20 (CCL20; [9]): 292%; % Stimulation / Gènes témoins, DEFB4A (DEFB4A; [9]): 7%
CC1=C(O)C(=O)C=C2C1=CC=C1[C@@]2(C)CC[C@@]2(C)C3C[C@@H](C)C(=O)C[C@]3(C)CC[C@]12C (stereo partly shown) [Tingénine A] | effet inhibiteur | 107 | 85 | 116 | 93 | 91 | 91 | 113 | 125 | 98 | 93 | 92 | 64 | effet inhibiteur | 123 | 102 | 108 | 80 | 112 | 124 | % Stimulation / Gènes témoins, CXCL11 (CXCL11; [10]): 23%; % Stimulation / Gènes témoins, CXCL16 (CXCL16; [10]): 50%; % Stimulation / Gènes témoins, S100A7 (S100A7; [10]): 70%; % Stimulation / Gènes témoins, IL-8 (IL-8 [2]; [10]): 53%; % Stimulation / Gènes témoins, MMP-9 (MMP-9 [3]; [10]): 34%; % Stimulation / Gènes témoins, CCL5 (CCL5; [10]): 19%; Libération de MMP-9 (pg/ml) ± sem (MMP-9 [4]; 500 ng/ml): 787 ± 105 pg/mL; % Stimulation / Gènes témoins, IL-23A (IL-23A; [10]): 55%; Indice ORAC / 100g triterpènes (x 1000) ([5]; 0,75 µg/ml): 33 960 / 100g triterpènes (x 1000); pouvoir anti-oxydant compared with vitamine C (in words) ([5]; comparison of ORAC indices of Tableau 6): inférieur; % Stimulation / Gènes témoins, CXCL10 (CXCL10; [10]): 31%; % Stimulation / Gènes témoins, CCL20 (CCL20; [10]): 80%; % Stimulation / Gènes témoins, DEFB4A (DEFB4A; [7]): 81%; % Stimulation / Gènes témoins, DEFB4A (DEFB4A; [8]): 63%; % Stimulation / Gènes témoins, DEFB4A (DEFB4A; [10]): 22%
O=C1O[C@H]([C@@H](O)CO)C(O)=C1O [Vitamine C, acide ascorbique, reference compound] | – | – | – | – | – | – | – | – | – | – | – | – | – | – | – | – | – | – | – | – | Indice ORAC / 100g triterpènes (x 1000) ([5]; 3 µg/ml): 69 813 / 100g triterpènes (x 1000)
Tingénine B | effet inhibiteur | 78 | 57 | 83 | 77 | 76 | 63 | 96 | 70 | 88 | 63 | 68 | 55 | effet inhibiteur | 80 | 72 | 93 | 83 | 105 | 85 | % Stimulation / Gènes témoins, CXCL11 (CXCL11; [10]): 27%; % Stimulation / Gènes témoins, CXCL16 (CXCL16; [10]): 54%; % Stimulation / Gènes témoins, S100A7 (S100A7; [10]): 57%; % Stimulation / Gènes témoins, IL-8 (IL-8 [2]; [10]): 44%; % Stimulation / Gènes témoins, MMP-9 (MMP-9 [3]; [10]): 32%; % Stimulation / Gènes témoins, CCL5 (CCL5; [10]): 19%; Libération de MMP-9 (pg/ml) ± sem (MMP-9 [4]; 500 ng/ml): 828 ± 31 pg/mL; % Stimulation / Gènes témoins, IL-23A (IL-23A; [10]): 34%; Indice ORAC / 100g triterpènes (x 1000) ([5]; 7,5 µg/ml): 124 320 / 100g triterpènes (x 1000); % Stimulation / Gènes témoins, CXCL10 (CXCL10; [10]): 30%; % Stimulation / Gènes témoins, CCL20 (CCL20; [10]): 82%; % Stimulation / Gènes témoins, DEFB4A (DEFB4A; [7]): 67%; % Stimulation / Gènes témoins, DEFB4A (DEFB4A; [8]): 48%; % Stimulation / Gènes témoins, DEFB4A (DEFB4A; [10]): 16%

From EP3965790B1, “PENTACYCLIC TRITERPENES IN THE TREATMENT OF VITILIGO” (Pierre Fabre Dermo-Cosmétique, priority 2019, dated 2020)
